Where a SMILES comes first, the peptide text is derived from it. The star is where a group is joined. Cbz = O=C(OCc1ccccc1)*
Tests used:
wild type murine p97 = wild type murine p97 (Mus musculus, UniProt Q01853); assay: In vitro ATP hydrolysis (malachite green ATPase assay), wild type murine p97; assay type: biochemical; details: 200 nM p97, 20 min preincubation at 23° C., malachite green; read-out: In vitro ATP Hydrolysis Activity IC50 WT-mP97
Description: (§1) Compounds were tested for their ability to inhibit the ATPase activity of purified wild type murine p97 and T532C-Cdc48, a mutant of yeast Cdc48 in which the residue analogous to cysteine 522, threonine 532, was converted to cysteine.

T532C-Cdc48 = T532C-Cdc48 (Saccharomyces cerevisiae, UniProt P25694, T532C); assay: In vitro ATP hydrolysis (malachite green ATPase assay), T532C-Cdc48; assay type: biochemical, yeast
Description: as §1
To determine whether cysteine 522 is necessary for inhibition of p97 by compound 2, a mutant of p97 was constructed in which cysteine 522 was converted to either alanine (C522A-mp97) or threonine (C522T-mp97). The IC50 values of compound 2 were measured the against various enzymes during a 20-minute preincubation (see Table 2). Mutation of cysteine 522 in p97 to either alanine or threonine decreased sensitivity to compound 2 by greater than 100-fold. On the other hand, yeast Cdc48, which normally is quite resistant to compound 2, became nearly 30-fold more sensitive to the compound upon introduction of a cysteine in place of threonine 532.

HeLa = assay: MTT cell growth assay, HeLa; assay type: cell-based; details: Homo sapiens, 48 or 72 h, read-out: Cell line inhibition of growth GI50 HeLa
Description: (§2) To probe further the effect of compound 2 and related compounds 1, 3, 5, 6 and 7, various concentrations of these compounds were added to 13 different cell lines and incubated for 48 or 72 h. An MTT assay was then performed to evaluate cell growth and survival.

MCF7 = assay: MTT cell growth assay, MCF7; assay type: cell-based; details: Homo sapiens, 48 or 72 h, read-out: Cell line inhibition of growth GI50 MCF7
Description: as §2

MDAMB-231 = assay: MTT cell growth assay, MDAMB-231; assay type: cell-based; details: Homo sapiens, MDA-MB-231, 48 or 72 h, read-out: Cell line inhibition of growth GI50 MDAMB-231
Description: as §2

RPMI8226 = assay: MTT cell growth assay, RPMI8226; assay type: cell-based; details: Homo sapiens, RPMI-8226, 48 or 72 h, read-out: Cell line inhibition of growth GI50 RPMI8226
Description: as §2

RL = assay: MTT cell growth assay, RL; assay type: cell-based; details: Homo sapiens, 48 or 72 h, read-out: Cell line inhibition of growth GI50 RL
Description: as §2

Molt4 = assay: MTT cell growth assay, Molt4; assay type: cell-based; details: Homo sapiens, MOLT-4, 48 or 72 h, read-out: Cell line inhibition of growth GI50 Molt4
Description: as §2

CCRF-CEM = assay: MTT cell growth assay, CCRF-CEM; assay type: cell-based; details: Homo sapiens, 48 or 72 h, read-out: Cell line inhibition of growth GI50 CCRF-CEM
Description: as §2

HTC116 WT = assay: MTT cell growth assay, HTC116 WT; assay type: cell-based; details: 48 or 72 h, read-out: Cell line inhibition of growth GI50 HTC116 WT
Description: as §2

HCT116 p53−/− = assay: MTT cell growth assay, HCT116 p53−/−; assay type: cell-based; details: Homo sapiens, HCT-116, 48 or 72 h, read-out: Cell line inhibition of growth GI50 HCT116 p53−/−
Description: as §2

LNCaP = assay: MTT cell growth assay, LNCaP; assay type: cell-based; details: Homo sapiens, 48 or 72 h, read-out: Cell line inhibition of growth GI50 LNCaP
Description: as §2

DU145 = assay: MTT cell growth assay, DU145; assay type: cell-based; details: Homo sapiens, DU-145, 48 or 72 h, read-out: Cell line inhibition of growth GI50 DU145
Description: as §2

PC3 = assay: MTT cell growth assay, PC3; assay type: cell-based; details: Homo sapiens, PC-3, 48 or 72 h, read-out: Cell line inhibition of growth GI50 PC3
Description: as §2

[1] = test system: HeLa cell line that stably expresses UbG76V-GFP; assay: Accumulation of UbG76V-GFP in HeLa cells (fluorescence microscopy); assay type: cell-based; details: fluorescence microscopy
Description: As a control, the same cells were treated with the proteasome inhibitor MG132. In the latter set of experiments, a HeLa cell line that stably expresses UbG76V-GFP was transfected with either wild type (WT), D1 mutant (E305Q), D2 mutant (E578Q) or E305Q, E578Q double mutant (QQ) murine 97-pcDNA4.1 plasmid (0.05 μg/100 μL) in a 96-well plate. After 23 h, the intensity of UbG76V-GFP signal was measured on a Molecular Devices ImageXpress automated fluorescence microscope. […] The direct accumulation of Ub-G76V-GFP caused by compound 2 at 25 μM is 4-fold less than that caused by MG132 at 2 μM. This is likely due to the fact that only fully folded Ub-G76V-GFP should require p97 for degradation by the proteasome.
As a second test of whether compound 8 can inhibit p97 in vivo, it was evaluated whether it can cause accumulation of the UbG76V-GFP reporter. A HeLa cell line that stably expresses UbG76V-GFP was treated with compound 8 for 1 h at 37° C., and was then evaluated by fluorescence microscopy. As a control, the same cells were treated with the proteasome inhibitor MG132. […] The level of GFP fluorescence was quantified in cells treated with compound 8 at different doses and for different periods of time (FIG. 28).

Ub-G76V-GFP/HeLa cells = assay: Degradation of pre-accumulated Ub-G76V-GFP (cycloheximide chase after MG132 washout); assay type: cell-based; details: for % K: relative to 0 μM
Description: To evaluate this possibility, an assay was developed to determine the rate of degradation of pre-accumulated Ub-G76V-GFP molecules. […] Cells were then washed with PBS three times remove the MG132. Cells were then refreshed by adding DMEM containing cycloheximide (50 μg/mL; to block production of more Ub-G76V-GFP) and test compounds (0˜10 μM) were added into cells. Eight 96-well plates were prepared and one of the plates was imaged at 25, 50, 70, 100, 110, 125, 145, or 170 min after washing with PBS three times. After washing out MG132, degradation of pre-accumulated Ub-G76V-GFP appears to follow pseudo-first order reaction. Rate constant (K; 1/min) can be determined from the slope of plotting Ln (Fold Accumulation) versus Time (min) (see FIG. 17 and FIG. 18).
Ub-G76V-GFP/HeLa cells were treated with MG132 (2 μM) for 1 h and washed with PBS three times. DMEM containing cycloheximide (50 μg/mL) and compound 8 (0-10 μM) was added into cells. Eight 96-well plates were prepared and one of the plates was imaged at 25, 50, 70, 100, 110, 125, 145, or 170 min after washing with PBS three times.

Chain of wild type murine p97 (Q01853 whole entry): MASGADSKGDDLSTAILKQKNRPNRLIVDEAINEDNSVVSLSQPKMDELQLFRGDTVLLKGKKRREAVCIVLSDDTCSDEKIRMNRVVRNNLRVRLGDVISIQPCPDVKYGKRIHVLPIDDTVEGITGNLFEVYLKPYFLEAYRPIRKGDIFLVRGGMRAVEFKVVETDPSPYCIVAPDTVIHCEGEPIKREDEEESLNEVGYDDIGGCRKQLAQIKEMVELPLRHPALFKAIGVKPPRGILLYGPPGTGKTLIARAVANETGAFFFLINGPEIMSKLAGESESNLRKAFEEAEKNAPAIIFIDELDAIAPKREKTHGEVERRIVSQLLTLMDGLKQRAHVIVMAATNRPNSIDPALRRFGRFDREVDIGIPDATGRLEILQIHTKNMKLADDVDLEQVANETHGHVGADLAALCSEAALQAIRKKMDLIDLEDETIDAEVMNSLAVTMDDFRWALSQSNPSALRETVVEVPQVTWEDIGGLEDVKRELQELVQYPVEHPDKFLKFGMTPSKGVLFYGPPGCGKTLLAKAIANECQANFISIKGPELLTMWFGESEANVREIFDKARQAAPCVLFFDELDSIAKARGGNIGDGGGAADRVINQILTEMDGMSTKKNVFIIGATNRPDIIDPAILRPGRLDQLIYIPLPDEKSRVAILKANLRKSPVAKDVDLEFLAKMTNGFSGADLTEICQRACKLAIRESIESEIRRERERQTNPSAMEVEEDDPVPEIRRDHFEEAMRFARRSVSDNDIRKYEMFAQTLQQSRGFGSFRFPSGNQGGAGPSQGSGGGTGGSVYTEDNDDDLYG
Chain of T532C-Cdc48 (P25694 whole entry T532C): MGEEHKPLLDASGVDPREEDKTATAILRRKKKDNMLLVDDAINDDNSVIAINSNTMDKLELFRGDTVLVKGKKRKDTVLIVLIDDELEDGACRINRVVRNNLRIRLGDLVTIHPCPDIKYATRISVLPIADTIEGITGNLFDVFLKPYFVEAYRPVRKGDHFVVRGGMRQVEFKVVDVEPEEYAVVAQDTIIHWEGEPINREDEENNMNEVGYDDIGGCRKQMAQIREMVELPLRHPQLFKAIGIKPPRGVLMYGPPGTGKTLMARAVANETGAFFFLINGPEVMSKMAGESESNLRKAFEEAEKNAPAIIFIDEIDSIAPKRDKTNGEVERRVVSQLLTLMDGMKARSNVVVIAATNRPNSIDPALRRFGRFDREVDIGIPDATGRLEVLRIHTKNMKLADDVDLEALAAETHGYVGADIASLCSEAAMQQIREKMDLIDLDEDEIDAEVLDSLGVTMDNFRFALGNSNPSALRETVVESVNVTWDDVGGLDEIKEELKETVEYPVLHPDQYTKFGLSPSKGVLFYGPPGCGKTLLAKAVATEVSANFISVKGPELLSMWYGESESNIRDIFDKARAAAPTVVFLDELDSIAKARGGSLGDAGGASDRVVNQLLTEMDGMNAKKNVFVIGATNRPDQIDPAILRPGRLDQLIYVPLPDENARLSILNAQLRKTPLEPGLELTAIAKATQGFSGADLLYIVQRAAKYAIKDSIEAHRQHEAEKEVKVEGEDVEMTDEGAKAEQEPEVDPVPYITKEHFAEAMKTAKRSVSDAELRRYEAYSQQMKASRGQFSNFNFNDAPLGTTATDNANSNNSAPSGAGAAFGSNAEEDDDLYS

Structure (SMILES)	IC50 (wild type murine p97)	IC50 (T532C-Cdc48)	GI50 (HeLa)	GI50 (MCF7)	GI50 (MDAMB-231)	GI50 (RPMI8226)	GI50 (RL)	GI50 (Molt4)	GI50 (CCRF-CEM)	GI50 (HTC116 WT)	GI50 (HCT116 p53−/−)	GI50 (LNCaP)	GI50 (DU145)	GI50 (PC3)	other results
C=CC(=O)N(C(=O)C=C)c1ncnc2c1c(-c1ccccc1)nn2C(C)(C)C [Compound 3]	1.1 ± 0.7 µM	26 ± 6 µM	5.3 ± 2.5 µM	6.6 ± 2.2 µM	24 ± 10 µM	1.2 ± 0.6 µM	5 ± 2 µM	2.7 ± 0.8 µM	7.2 ± 4.3 µM	5.1 ± 2 µM	4 ± 0.9 µM	4.6 ± 1.1 µM	8.2 ± 2.4 µM	3.3 ± 0.9 µM	–
CC(C)C[C@@H](C=O)NC(=O)[C@H](CC(C)C)NC(=O)[C@H](CC(C)C)NC(=O)OCc1ccccc1 [MG132, reference compound] (Cbz-Leu-Leu-Leu-aldehyde)	–	–	–	–	–	–	–	–	–	–	–	–	–	–	accumulation of UbG76V-GFP ([1]; 1 h at 37° C.): caused detectable accumulation of UbG76V-GFP; accumulation of UbG76V-GFP ([1]; 4 hours at 37° C.): caused accumulation of UbG76V-GFP; K, rate constant of Ub-G76V-GFP degradation (Ub-G76V-GFP/HeLa cells; 0.01 μM): 0.0336 min⁻¹; % K (Ub-G76V-GFP/HeLa cells; 0.01 μM): 88%; K, rate constant of Ub-G76V-GFP degradation (Ub-G76V-GFP/HeLa cells; 0.04 μM): 0.0322 min⁻¹; % K (Ub-G76V-GFP/HeLa cells; 0.04 μM): 84%; K, rate constant of Ub-G76V-GFP degradation (Ub-G76V-GFP/HeLa cells; 0.16 μM): 0.0260 min⁻¹; % K (Ub-G76V-GFP/HeLa cells; 0.16 μM): 68%; K, rate constant of Ub-G76V-GFP degradation (Ub-G76V-GFP/HeLa cells; 0.63 μM): 0.0095 min⁻¹; % K (Ub-G76V-GFP/HeLa cells; 0.63 μM): 25%; K, rate constant of Ub-G76V-GFP degradation (Ub-G76V-GFP/HeLa cells; 2.5 μM): 0.0005 min⁻¹; % K (Ub-G76V-GFP/HeLa cells; 2.5 μM): 1%; K, rate constant of Ub-G76V-GFP degradation (Ub-G76V-GFP/HeLa cells; 10 μM): 0.0009 min⁻¹; % K (Ub-G76V-GFP/HeLa cells; 10 μM): 2%; IC50 (Ub-G76V-GFP/HeLa cells; Homo sapiens, HeLa, 1 h, read-out: IC50 on the decay of Ub-G76V-GFP): 0.24 ± 0.04 µM
C=CC(=O)N(C(=O)C=C)c1ncnc2c1c(-c1ccc3ccccc3c1)nn2C(C)(C)C [Compound 7]	1.3 ± 0.7 µM	22 ± 11 µM	1.8 ± 0.6 µM	3.6 ± 1 µM	21 ± 11 µM	3.4 ± 1.7 µM	1.4 ± 0.7 µM	1.2 ± 0.5 µM	2.4 ± 1.1 µM	5.5 ± 1.4 µM	13 ± 4 µM	11 ± 4 µM	4.9 ± 0.6 µM	6.2 ± 1.2 µM	–
C=CC(=O)Nc1ncnc2c1c(-c1ccc3ccccc3c1)nn2C(C)(C)C [Compound 6]	3 ± 1 µM	24 ± 7 µM	1.2 ± 0.2 µM	1.9 ± 0.4 µM	5.9 ± 2.6 µM	1.2 ± 0.3 µM	1.3 ± 0.4 µM	0.7 ± 0.1 µM	1.3 ± 0.4 µM	2.8 ± 1.6 µM	2.4 ± 1 µM	2.5 ± 0.7 µM	2.3 ± 0.7 µM	0.3 ± 0.23 µM	–
